Values of other authors, collected in US5814631A, “Quinazoline derivatives and applications thereof” (Suntory Limited, priority 1995, dated 1998).

System: chymase
Conditions: canine, simian, and human arterial tissue; cited from earlier work

## CC(C)C[C@H](NC(=O)[C@@H](NC(=O)N[C@@H](Cc1ccccc1)C(=O)O)[C@@H]1CCN=C(N)N1)C(=O)N[C@H](C=O)Cc1ccccc1 [chymostatin]
  inhibition of the enzymatic activity of chymase, in words: inhibited
